According to ChEMBL document CHEMBL1833933, “Relationship between the structures of flavonoids and their NF-κB-dependent transcriptional activities” (Bioorg Med Chem Lett, 2011):
Active and inactive are the calls of the source. The rule behind the calls is not given here.

Legend:
Format in all cases: cell-based
[1] = system: HCT-116; assay: Inhibition of NF-kappaB activation expressed in HCT116 cells assessed as inhibition of TNF-alpha-induced transcriptional activation at 10 uM after 12 hrs by luciferase reporter gene assay relative to control; conditions: values are per cent of control
[2] = system: HCT-116; assay: Inhibition of TNF-alpha-induced NF-kappaB activation expressed in HCT116 cells assessed as reduction of RelA phosphorylation at Ser536 at 20 uM treated 30 mins before TNFalpha challenge by immunofluorescence microscopic analysis
[3] = system: HCT-116; assay: Inhibition of TNF-alpha-induced NF-kappaB activation expressed in HCT116 cells assessed as reduction of IkappaB phosphorylation at Ser32 at 20 uM treated 30 mins before TNFalpha challenge by Western blot analysis

| Structure (SMILES) | residual activity [1] [%] | other results |
| --- | --- | --- |
| Cc1c(-c2ccccc2)oc2c(C(=O)O)cccc2c1=O | 143 |  |
| COc1cc(-c2oc3cc(O)cc(O)c3c(=O)c2O[C@@H]2O[C@H](CO)[C@@H](O)[C@H](O)[C@H]2O)ccc1O | 115 |  |
| COc1ccc(-c2cc(=O)c3c(OC)cc(OC)cc3o2)cc1 | 89.9 |  |
| COc1cc(O)c2c(=O)c(-c3ccc(O)cc3)coc2c1 | 105 |  |
| COc1ccc(/C=C/C(=O)c2ccc(OC)cc2O)cc1 | 83.1 |  |
| O=c1cc(-c2ccccc2)oc2ccc3ccccc3c12 | 150 |  |
| COc1cccc2c1C(=O)CC(c1ccccc1)O2 (stereo not drawn) | 108 |  |
| COc1cc(/C=C/C(=O)c2cc(OC)cc(OC)c2)cc(OC)c1 |  | inhibition [2]: Active; inhibition [3]: Active |
| COc1cccc(/C=C/C(=O)c2cc(OC)cc(OC)c2)c1 | 77.4 |  |
| COc1cccc2oc(-c3ccccc3)cc(=O)c12 | 63.9 |  |
| O=c1cc(-c2cccc(O)c2)oc2cccc(O)c12 | 126 |  |
| COc1ccc(-c2coc3cc(OC)cc(OC)c3c2=O)cc1 | 123 |  |
| COc1ccccc1-c1cc(=O)c2ccc3ccccc3c2o1 | 65.1 |  |
| O=c1cc(-c2ccccc2)oc2ccccc12 | 113 |  |
| COc1cccc2oc(-c3ccc(O)cc3)cc(=O)c12 | 87.7 |  |
| O=c1c(O)c(-c2ccc(O)c(O)c2)oc2c(O[C@@H]3O[C@H](CO)[C@@H](O)[C@H](O)[C@H]3O)c(O)cc(O)c12 | 99.1 |  |
| COc1cc(OC)c2c(c1)OC(c1ccccc1)CC2=O (stereo not drawn) | 126 |  |
| O=c1cc(-c2ccccc2)oc2cccc(O)c12 | 116 |  |
| O=c1cc(-c2cccc(O)c2O)oc2ccccc12 | 109 |  |
| COc1cc(-c2cc(=O)c3ccccc3o2)ccc1O | 105 |  |
| O=c1cc(-c2ccccc2)oc2c1ccc1ccccc12 | 91.4 |  |
| COc1cc(OC)c2c(=O)cc(-c3ccc(OC)c(OC)c3)oc2c1 | 124 |  |
| COc1ccc2c(=O)c(-c3ccccc3)coc2c1 | 132 |  |
| O=C1C[C@@H](c2ccc(O)cc2)Oc2cc(O)cc(O)c21 | 135 |  |
| COc1cccc(-c2cc(=O)c3ccccc3o2)c1OC | 100 |  |
| COc1ccc2c(c1)OC(c1cc(OC)c(OC)c(OC)c1)CC2=O (stereo not drawn) | 99.8 |  |
| COc1cc(/C=C/C(=O)c2ccccc2OC)cc(OC)c1 | 61.1 |  |
